Reference: the NIST ThermoML archive (doi:10.1016/j.jct.2008.12.022)
± gives the expanded uncertainty stated by the source.

Details: 101.33 kPa, Liquid; for viscosity: Capillary tube (Ostwald / Ubbelohde) method; for mass density: Pycnometric method

| viscosity (303.15 K) | mass density (303.15 K) | viscosity (313.15 K) | mass density (313.15 K) | viscosity (323.15 K) | mass density (323.15 K) | viscosity (333.15 K) | mass density (333.15 K) | viscosity (343.15 K) | mass density (343.15 K) | Compound |
| --- | --- | --- | --- | --- | --- | --- | --- | --- | --- | --- |
| 32.4 ± 0.73 mPa·s | 1029 ± 1 kg/m3 | 19.12 ± 0.45 mPa·s | 1021 ± 1 kg/m3 | 12.1 ± 0.28 mPa·s | 1014 ± 1 kg/m3 | 8.19 ± 0.18 mPa·s | 1006 ± 1 kg/m3 | 5.704 ± 0.13 mPa·s | 999 ± 1 kg/m3 | CC(O)CO (stereo not given) [1,2-propanediol] |
| 29.27 ± 0.7 mPa·s | 1116 ± 2 kg/m3 | 18.96 ± 0.46 mPa·s | 1109 ± 2 kg/m3 | 12.96 ± 0.31 mPa·s | 1101 ± 2 kg/m3 | 9.288 ± 0.22 mPa·s | 1093 ± 2 kg/m3 | 6.906 ± 0.17 mPa·s | 1086 ± 2 kg/m3 | OCCOCCOCCO [triethylene glycol] |
